Measurements as given in patent US10233188B2, “CDK2/4/6 inhibitors” (priority 2016, dated 2019).

Columns and labels:
[1] = biological target: CDK2/Cyclin E1 (Homo sapiens (Human), UniProt P24941); assay: biochemical; settings: CDK2_Ki (nM), phosphorylated CDK2/Cyclin E1, 150 μM ATP, Morrison tight-binding fit
Protocol: The assay was initiated with the addition of ATP, following a fifteen minutes pre-incubation of enzyme and inhibitor at room temperature in the reaction mixture. The reaction was stopped after 45 minutes at room temperature by the addition of 50 μL of 80 mM EDTA, pH 7.5.

[2] = biological target: CDK6/Cyclin D1 (Homo sapiens (Human), UniProt Q00534); assay: biochemical; settings: CDK6_Ki (nM), non-phosphorylated CDK6/Cyclin D1, 2 mM ATP, Morrison fit
Sequence of CDK6/Cyclin D1 (Q00534 whole entry): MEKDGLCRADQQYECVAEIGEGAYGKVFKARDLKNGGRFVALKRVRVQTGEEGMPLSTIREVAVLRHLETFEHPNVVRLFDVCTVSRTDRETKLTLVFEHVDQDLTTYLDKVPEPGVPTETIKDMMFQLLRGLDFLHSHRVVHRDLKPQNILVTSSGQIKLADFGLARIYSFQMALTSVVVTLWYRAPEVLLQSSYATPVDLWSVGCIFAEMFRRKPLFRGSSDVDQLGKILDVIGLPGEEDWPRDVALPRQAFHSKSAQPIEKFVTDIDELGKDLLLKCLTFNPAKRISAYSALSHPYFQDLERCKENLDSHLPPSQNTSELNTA
Sequence of CDK6/Cyclin D1 (P24385 whole entry partner): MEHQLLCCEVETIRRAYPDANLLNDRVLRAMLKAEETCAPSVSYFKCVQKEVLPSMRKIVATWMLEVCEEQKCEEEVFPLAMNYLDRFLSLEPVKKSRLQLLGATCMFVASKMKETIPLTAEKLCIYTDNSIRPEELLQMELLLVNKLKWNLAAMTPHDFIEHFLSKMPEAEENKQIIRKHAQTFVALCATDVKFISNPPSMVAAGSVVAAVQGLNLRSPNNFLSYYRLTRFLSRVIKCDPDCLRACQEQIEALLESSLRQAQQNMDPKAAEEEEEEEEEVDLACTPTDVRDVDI

Structure (SMILES) | Ki [1] | Ki [2]
Cc1cc2cnc(NC3CCN(S(=O)(=O)CC4CC4)CC3)nc2n([C@H]2CCC[C@]2(C)O)c1=O (single isomer, unassigned) [Example 117, (+)-2-({1-[(cyclopropylmethyl)sulfonyl]piperidin-4-yl}amino)-8-[(1R*,2R*)-2-hydroxy-2-methylcyclopentyl]-6-methylpyrido[2,3-d]pyrimidin-7(8H)-one] | 1.74 nM | 2.46 nM
C[C@]1(O)CCC[C@@H]1n1c(=O)c(CO)cc2cnc(NC3CCN(S(C)(=O)=O)CC3)nc21 (single isomer, unassigned) [Example 186, (+)-6-(hydroxymethyl)-8-[(1R*,2R*)-2-hydroxy-2-methylcyclopentyl]-2-{[1-(methylsulfonyl)piperidin-4-yl]amino}pyrido[2,3-d]pyrimidin-7(8H)-one] | 5.65 nM | 3.62 nM
C[C@@]1(O)CCC[C@H]1n1c(=O)c(Cl)cc2cnc(NC3CCN(S(N)(=O)=O)CC3)nc21 (single isomer, unassigned) [Example 128, (−)-4-({6-chloro-8-[(1R*,2R*)-2-hydroxy-2-methylcyclopentyl]-7-oxo-7,8-dihydropyrido[2,3-d]pyrimidin-2-yl}amino)piperidine-1-sulfonamide] | 0.12 nM | 0.53 nM
C[C@]1(O)CCC[C@@H]1n1c(=O)c(CC#N)cc2cnc(NC3CCN(S(C)(=O)=O)CC3)nc21 (single isomer, unassigned) [Example 121, (+)-(8-[(1R*,2R*)-2-hydroxy-2-methylcyclopentyl]-2-{[1-(methylsulfonyl)piperidin-4-yl]amino}-7-oxo-7,8-dihydropyrido[2,3-d]pyrimidin-6-yl)acetonitrile] | 2.15 nM | 0.82 nM
C[C@]1(O)CCC[C@@H]1n1c(=O)ccc2cnc(NC3CCN(S(=O)(=O)NC4CCOCC4)CC3)nc21 (single isomer, unassigned) [Example 69, (+)-4-({8-[(1R*,2R*)-2-hydroxy-2-methylcyclopentyl]-7-oxo-7,8-dihydropyrido[2,3-d]pyrimidin-2-yl}amino)-N-(tetrahydro-2H-pyran-4-yl)piperidine-1-sulfonamide] | 4.48 nM | 22.2 nM
C[C@@]1(O)CCC[C@H]1n1c(=O)ccc2cnc(NC3CCN(S(=O)(=O)CC(F)(F)F)CC3)nc21 (single isomer, unassigned) [Example 86, (−)-8-[(1R*,2R*)-2-hydroxy-2-methylcyclopentyl]-2-({1-[(2,2,2-trifluoroethyl)sulfonyl]piperidin-4-yl}amino)pyrido[2,3-d]pyrimidin-7(8H)-one] | 0.45 nM | 1.6 nM
COCc1cc2cnc(NC3CCN(S(C)(=O)=O)CC3)nc2n([C@@H]2CCC[C@@H]2C)c1=O [Example 48, 6-(methoxymethyl)-8-[(1R,2S)-2-methylcyclopentyl]-2-{[1-(methylsulfonyl)piperidin-4-yl]amino}pyrido[2,3-d]pyrimidin-7(8H)-one] | 1.39 nM | 0.54 nM
Cc1cc2cnc(NC3CCN(S(C)(=O)=O)CC3)nc2n([C@@H]2CCC[C@@H](O)C2)c1=O (single isomer, unassigned) [Example 32, (+)-8-[(1R*,3R*)-3-hydroxycyclohexyl]-6-methyl-2-{[1-(methylsulfonyl)piperidin-4-yl]amino}pyrido[2,3-d]pyrimidin-7(8H)-one] | 0.84 nM | 1.1 nM
C[C@@H]1[C@@H](O)CC[C@@H]1n1c(=O)ccc2cnc(NC3CCN(S(C)(=O)=O)CC3)nc21 (single isomer, unassigned) [Example 209, (+)-8-[(1R*,2R*,3R*)-3-hydroxy-2-methylcyclopentyl]-2-{[1-(methylsulfonyl)piperidin-4-yl]amino}pyrido[2,3-d]pyrimidin-7(8H)-one] | 0.5 nM | 0.75 nM
Cc1cc2cnc(NC3CCN(S(=O)(=O)C4CC4)CC3)nc2n([C@@H]2CCC[C@@]2(C)O)c1=O (single isomer, unassigned) [Example 112, (−)-2-{[1-(cyclopropylsulfonyl)piperidin-4-yl]amino}-8-[(1R*,2R*)-2-hydroxy-2-methylcyclopentyl]-6-methylpyrido[2,3-d]pyrimidin-7(8H)-one] | 0.12 nM | 1.24 nM
COC(C)(C)CNS(=O)(=O)N1CCC(Nc2ncc3ccc(=O)n([C@@H]4CCC[C@@]4(C)O)c3n2)CC1 (single isomer, unassigned) [Example 60, (−)-4-({8-[(1R*,2R*)-2-hydroxy-2-methylcyclopentyl]-7-oxo-7,8-dihydropyrido[2,3-d]pyrimidin-2-yl}amino)-N-(2-methoxy-2-methylpropyl)piperidine-1-sulfonamide] | 0.48 nM | 3.18 nM
Cc1cc2cnc(NC3CCN(S(=O)(=O)C4CC4)CC3)nc2n([C@H]2CCC[C@]2(C)O)c1=O (single isomer, unassigned) [Example 113, (+)-2-{[1-(cyclopropylsulfonyl)piperidin-4-yl]amino}-8-[(1R*,2R*)-2-hydroxy-2-methylcyclopentyl]-6-methylpyrido[2,3-d]pyrimidin-7(8H)-one] | 1.99 nM | 4.15 nM
Cc1cc2cnc(NC3CCN(S(=O)(=O)C4CCS(=O)(=O)C4)CC3)nc2n([C@H]2CCC[C@]2(C)O)c1=O (single isomer, unassigned; isomer c) [Example 108, (+)-2-[(1-{[(3ξ)-1,1-dioxidotetrahydrothiophen-3-yl]sulfonyl}piperidin-4-yl)amino]-8-[(1R*,2R*)-2-hydroxy-2-methylcyclopentyl]-6-methylpyrido[2,3-d]pyrimidin-7(8H)-one-Isomer C] | 3.27 nM | 3.99 nM
COCCS(=O)(=O)N1CCC(Nc2ncc3cc(C)c(=O)n([C@H]4CCC[C@]4(C)O)c3n2)CC1 (single isomer, unassigned) [Example 115, (+)-8-[(1R*,2R*)-2-hydroxy-2-methylcyclopentyl]-2-({1-[(2-methoxyethyl)sulfonyl]piperidin-4-yl}amino)-6-methylpyrido[2,3-d]pyrimidin-7(8H)-one] | 2.39 nM | 3.17 nM
C[C@]1(O)CCC[C@@H]1n1c(=O)c(C(F)F)cc2cnc(NC3CCN(S(N)(=O)=O)CC3)nc21 (single isomer, unassigned) [Example 188, (+)-4-({6-(difluoromethyl)-8-[(1R*,2R*)-2-hydroxy-2-methylcyclopentyl]-7-oxo-7,8-dihydropyrido[2,3-d]pyrimidin-2-yl}amino)piperidine-1-sulfonamide] | 0.7 nM | 2.4 nM

The remaining compounds from weak to strong by Ki [1], led by results:

Ki [1] | Ki [2] | Structure (SMILES)
4.26 nM | 4.78 nM | Cc1cc2cnc(NC3CCN(S(C)(=O)=O)CC3)nc2n([C@@H]2COC[C@@]2(C)O)c1=O (single isomer, unassigned) [Example 197, (−)-8-[(3R*,4S*)-4-hydroxy-4-methyltetrahydrofuran-3-yl]-6-methyl-2-{[1-(methylsulfonyl)piperidin-4-yl]amino}pyrido[2,3-d]pyrimidin-7(8H)-one]
4.01 nM | 5.37 nM | CC[C@]1(O)CCC[C@@H]1n1c(=O)ccc2cnc(NC3CCN(S(C)(=O)=O)CC3)nc21 (single isomer, unassigned) [Example 194, (+)-(8-[(1R*,2R*)-2-ethyl-2-hydroxycyclopentyl]-2-{[1-(methylsulfonyl)piperidin-4-yl]amino}pyrido[2,3-d]pyrimidin-7(8H)-one]
3.46 nM | 12.6 nM | CNS(=O)(=O)N1CCC(Nc2ncc3cc(Cl)c(=O)n([C@H]4CCC[C@]4(C)O)c3n2)CC1 (single isomer, unassigned) [Example 127, (+)-4-({6-chloro-8-[(1R*,2R*)-2-hydroxy-2-methylcyclopentyl]-7-oxo-7,8-dihydropyrido[2,3-d]pyrimidin-2-yl}amino)-N-methylpiperidine-1-sulfonamide]
2.14 nM | 4.9 nM | CCS(=O)(=O)N1CCC(Nc2ncc3cc(C)c(=O)n([C@H]4CCC[C@]4(C)O)c3n2)CC1 (single isomer, unassigned) [Example 111, (+)-2-{[1-(ethylsulfonyl)piperidin-4-yl]amino}-8-[(1R*,2R*)-2-hydroxy-2-methylcyclopentyl]-6-methylpyrido[2,3-d]pyrimidin-7(8H)-one]
1.57 nM | 2.84 nM | CS(=O)(=O)N1CCC(Nc2ncc3ccc(=O)n([C@H]4CC[C@@H](O)CC4)c3n2)CC1 [Example 215, 8-(cis-4-hydroxycyclohexyl)-2-{[1-(methylsulfonyl)piperidin-4-yl]amino}pyrido[2,3-d]pyrimidin-7(8H)-one]
1.25 nM | 0.53 nM | CS(=O)(=O)N1CCC(Nc2ncc3cc(C(F)F)c(=O)n([C@H]4CC[C@H](O)C4)c3n2)CC1 (relative stereo) [Example 134, (+)-6-(difluoromethyl)-8-[(1R*,3R*)-3-hydroxycyclopentyl]-2-{[1-(methylsulfonyl)piperidin-4-yl]amino}pyrido[2,3-d]pyrimidin-7(8H)-one]
1.19 nM | 2.44 nM | CS(=O)(=O)CS(=O)(=O)N1CCC(Nc2ncc3ccc(=O)n(C4CCCC4)c3n2)CC1 [Example 18, 8-cyclopentyl-2-[(1-{[(methylsulfonyl)methyl]sulfonyl}piperidin-4-yl)amino]pyrido[2,3-d] pyrimidin-7(8H)-one]
0.78 nM | 0.62 nM | CNS(=O)(=O)N1CCC(Nc2ncc3cc(C)c(=O)n(C4CCCC4)c3n2)CC1 [Example 23, 4-[(8-cyclopentyl-6-methyl-7-oxo-7,8-dihydropyrido[2,3-d]pyrimidin-2-yl)amino]-N-methylpiperidine-1-sulfonamide]
0.14 nM | 0.77 nM | Cc1cc2cnc(NC3CCN(S(=O)(=O)NCC(C)(F)F)CC3)nc2n([C@@H]2CCC[C@@]2(C)O)c1=O (single isomer, unassigned) [Example 104, (−)-N-(2,2-difluoropropyl)-4-({8-[(1R*,2R*)-2-hydroxy-2-methylcyclopentyl]-6-methyl-7-oxo-7,8-dihydropyrido[2,3-d]pyrimidin-2-yl}amino)piperidine-1-sulfonamide]
